In patent US20260217706A1, “HETEROCYCLIC COMPOUNDS, PREPARATION METHOD THEREFOR AND USE THEREOF” (GUANGZHOU YUFAN NANTU BIOTECHNOLOGIES CO., LTD, priority 2023, published 2026) one finds Ki data, which are given here for 22 molecules.

Sequence of CBL-B protein (Q13191 whole entry): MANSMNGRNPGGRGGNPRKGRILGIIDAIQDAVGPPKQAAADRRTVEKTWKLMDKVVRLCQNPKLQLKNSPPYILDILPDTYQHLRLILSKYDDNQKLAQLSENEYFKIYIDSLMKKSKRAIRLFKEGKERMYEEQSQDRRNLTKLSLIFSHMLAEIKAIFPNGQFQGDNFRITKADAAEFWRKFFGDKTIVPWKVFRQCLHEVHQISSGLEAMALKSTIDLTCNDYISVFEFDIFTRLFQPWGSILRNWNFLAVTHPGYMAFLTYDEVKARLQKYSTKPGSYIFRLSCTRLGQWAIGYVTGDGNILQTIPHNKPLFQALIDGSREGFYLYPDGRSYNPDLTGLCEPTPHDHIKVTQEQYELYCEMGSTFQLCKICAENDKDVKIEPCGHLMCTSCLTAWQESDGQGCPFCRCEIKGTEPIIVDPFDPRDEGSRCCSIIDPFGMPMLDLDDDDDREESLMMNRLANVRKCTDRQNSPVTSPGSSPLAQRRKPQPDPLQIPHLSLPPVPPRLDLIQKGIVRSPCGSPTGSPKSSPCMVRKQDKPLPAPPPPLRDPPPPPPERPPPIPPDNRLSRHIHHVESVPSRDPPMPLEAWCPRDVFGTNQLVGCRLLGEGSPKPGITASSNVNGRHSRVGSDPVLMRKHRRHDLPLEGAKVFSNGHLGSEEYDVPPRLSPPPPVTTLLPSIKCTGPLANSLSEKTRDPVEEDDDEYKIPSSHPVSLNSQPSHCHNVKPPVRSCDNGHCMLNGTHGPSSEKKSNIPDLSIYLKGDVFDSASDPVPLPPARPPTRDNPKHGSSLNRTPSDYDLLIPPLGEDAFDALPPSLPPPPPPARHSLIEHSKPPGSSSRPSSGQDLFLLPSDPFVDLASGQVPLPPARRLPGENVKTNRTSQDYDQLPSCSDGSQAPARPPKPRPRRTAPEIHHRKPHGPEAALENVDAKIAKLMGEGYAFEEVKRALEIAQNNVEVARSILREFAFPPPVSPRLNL

The target of the experiment is CBL-B protein (Homo sapiens, UniProt Q13191). The experiment can be described thus: CBL-B binding experiment (Streptavidin-Tb cryptate / Ligand L1 displacement). The conditions noted are these: 8 nM CBL-B protein, 25° C., 60 minutes; Ki=Relative IC50/2. How it is done:
The reaction system mainly includes 1× buffer, 20 mM HEPES pH 7.5, 150 mM NaCl, 0.01% Triton X-100, 0.5 mM TCEP, and 0.1% ug/ml BSA. The compound is continuously diluted with DMSO for 10 concentration points, and 150 nL is transferred to the experimental plate. The experimental reaction begins after adding 8 nM of CBL-B protein and the reaction is carried out at 25° C. for 60 minutes. […] After an additional 60 minutes of incubation at room temperature, the experimental plate is read using an EnVision plate. The luminescence signal values were converted to percentage inhibition rates. Inhibition %=(Sample value−Maximum value)/(Minimum value−Maximum value)×100. The minimum value refers to the measured value in the wells without CBL-B protein but with DMSO and Ligand, while the maximum value refers to the measured value in the wells with DMSO, CBL-B protein, and Ligand. The IC50 values are calculated by XLFit (version 5.3.1.3) in Excel. Equation: Y=Bottom+(Top−Bottom)/(1+(IC50/X)^HillSlope); Ki=Relative IC50/2.
As for `C[C@H]1CCCN(Cc2cc3c(C(F)(F)F)cn(-c4ccc([C@]5(c6nncn6C)C[C@@H](C)C5)s4)c(=O)c3[nH]2)C1` [Compound T073, 6-(5-((1r,3S)-3-methyl-1-(4-methyl-4H-1,2,4-triazol-3-yl)cyclobutyl)thiophen-2-yl)-2-(((S)-3-methylpiperidin-1-yl)methyl)-4-(trifluoromethyl)-1,6-dihydro-7H-pyrrolo[2,3-c]pyridin-7-one], the Ki is below 50 nM.
The value for `CO[C@H]1C[C@@](c2cccc(-n3cc(C(F)(F)F)c4cc(CN5CCCC(C(F)F)C5)[nH]c4c3=O)c2)(c2nncn2C)C1` (stereo partly shown) [Compound T155, 2-((3-(difluoromethyl)piperidin-1-yl)methyl)-6-(3-((1s,3s)-3-methoxy-1-(4-methyl-4H-1,2,4-triazol-3-yl)cyclobutyl)phenyl)-4-(trifluoromethyl)-1,6-dihydro-7H-pyrrolo[2,3-c]pyridin-7-one] was below 50 nM.
With `C[C@@H]1CN(Cc2cc3c(C4CC4)cn(-c4cccc(C5(Cc6nncn6C)COC5)c4)c(=O)c3[nH]2)CCC1(F)F` [Compound T078, (R)-4-cyclopropyl-2-((4,4-difluoro-3-methylpiperidin-1-yl)methyl)-6-(3-(3-((4-methyl-4H-1,2,4-triazol-3-yl)methyl)oxetan-3-yl)phenyl)-1,6-dihydro-7H-pyrrolo[2,3-c]pyridin-7-one], the inhibition constant (Ki) is below 50 nM.
`Cn1cnnc1C1(c2cccc(-n3cc(C(F)(F)F)c4cc(CN5CCC[C@H](F)C5)[nH]c4c3=O)c2)CCC1` [Compound T048, 2-[[(3S)-3-fluoro-1-piperidyl]methyl]-6-[3-[1-(4-methyl-1,2,4-triazol-3-yl)cyclobutyl]phenyl]-4-(trifluoromethyl)-1H-pyrrolo[2,3-c]pyridin-7-one] had a Ki below 50 nM.
Next, `CCN(CC)Cc1cc2c(C(F)(F)F)cn(-c3cccc([C@]4(c5nncn5C)C[C@@H](OC)C4)c3)c(=O)c2[nH]1` [Compound T117, 2-((diethylamino)methyl)-6-(3-((1s,3s)-3-methoxy-1-(4-methyl-4H-1,2,4-triazol-3-yl)cyclobutyl)phenyl)-4-(trifluoromethyl)-1,6-dihydro-7H-pyrrolo[2,3-c]pyridin-7-one]: below 50 nM.
In turn, `Cn1cnnc1C1(c2cccc(-n3cc(C(F)(F)F)c4cc(CN5CCC[C@@H](F)C5)[nH]c4c3=O)c2)CCC1` [Compound T046, 2-[[(3R)-3-fluoro-1-piperidyl]methyl]-6-[3-[1-(4-methyl-1,2,4-triazol-3-yl)cyclobutyl]phenyl]-4-(trifluoromethyl)-1H-pyrrolo[2,3-c]pyridin-7-one] yielded a Ki below 50 nM.
On to `COCC1(NCc2cc3c(C(F)(F)F)cn(-c4cccc([C@]5(c6nncn6C)C[C@@H](OC)C5)c4)c(=O)c3[nH]2)CC1` [Compound T100, 6-(3-((1s,3s)-3-methoxy-1-(4-methyl-4H-1,2,4-triazol-3-yl)cyclobutyl)phenyl)-2-(((1-(methoxymethyl)cyclopropyl)amino)methyl)-4-(trifluoromethyl)-1,6-dihydro-7H-pyrrolo[2,3-c]pyridin-7-one], for which the Ki was below 50 nM.
In turn, `Cn1cnnc1C1(c2cccc(-n3cc(C(F)(F)F)c4cc(CN5C[C@H]6C[C@@H]5CO6)[nH]c4c3=O)c2)CCC1` [Compound T032, 6-[3-[1-(4-methyl-1,2,4-triazol-3-yl)cyclobutyl]phenyl]-2-[[(1R,4R)-2-oxa-5-azabicyclo[2.2.1]heptan-5-yl]methyl]-4-(trifluoromethyl)-1H-pyrrolo[2,3-c]pyridin-7-one] gave a Ki below 50 nM.
Next, `Cc1cn(-c2cccc(C3(Cc4nncn4C)COC3)c2)c(=O)c2[nH]c(CN3CCC[C@H](C)C3)cc12` [Compound T003, 4-methyl-2-[[(3S)-3-methyl-1-piperidyl]methyl]-6-[3-[3-[(4-methyl-1,2,4-triazol-3-yl)methyl]oxetan-3-yl]phenyl]-1H-pyrrolo[2,3-c]pyridin-7-one]: below 50 nM.
Next, `Cn1cnnc1C1(c2cccc(-n3cc(C(F)(F)F)c4cc(CN5CCC[C@]6(CCOC6)C5)[nH]c4c3=O)c2)CCC1` [Compound T123, (S)-2-((2-oxa-7-azaspiro[4.5]decan-7-yl)methyl)-6-(3-(1-(4-methyl-4H-1,2,4-triazol-3-yl)cyclobutyl)phenyl)-4-(trifluoromethyl)-1,6-dihydro-7H-pyrrolo[2,3-c]pyridin-7-one]: below 50 nM; `Cn1cnnc1C1(c2cccc(-n3cc(C(F)(F)F)c4cc(CN5C6CCCC5CC6)[nH]c4c3=O)c2)CCC1` [Compound T052, 2-(8-azabicyclo[3.2.1]octan-8-ylmethyl)-6-[3-[1-(4-methyl-1,2,4-triazol-3-yl)cyclobutyl]phenyl]-4-(trifluoromethyl)-1H-pyrrolo[2,3-c]pyridin-7-one]: below 50 nM; `Cn1cnnc1C1(c2cccc(-n3cc(C(F)(F)F)c4cc(CN5C[C@@H]6C[C@H]5CO6)[nH]c4c3=O)c2)CCC1` [Compound T031, 6-[3-[1-(4-methyl-1,2,4-triazol-3-yl)cyclobutyl]phenyl]-2-[[(1 S,4S)-2-oxa-5-azabicyclo [2.2.1]heptan-5-yl]methyl]-4-(trifluoromethyl)-1H-pyrrolo[2,3-c]pyridin-7-one]: below 50 nM.
The value for `C[C@H]1CCCN(Cc2cc3c(Br)cn(-c4cccc(C5(Cc6nncn6C)COC5)c4)c(=O)c3[nH]2)C1` [Compound T090, (S)-4-bromo-6-(3-(3-((4-methyl-4H-1,2,4-triazol-3-yl)methyl)oxetan-3-yl)phenyl)-2-((3-methylpiperidin-1-yl)methyl)-1,6-dihydro-7H-pyrrolo[2,3-c]pyridin-7-one] was below 50 nM; that for `Cn1cnnc1C1(c2cccc(-n3cc(C(F)(F)F)c4cc(CN5CC(F)CC(CO)C5)[nH]c4c3=O)c2)CCC1` (stereo not shown) [Compound T106, 2-[[3-fluoro-5-(hydroxymethyl)-1-piperidyl]methyl]-6-[3-[1-(4-methyl-1,2,4-triazol-3-yl)cyclobutyl]phenyl]-4-(trifluoromethyl)-1H-pyrrolo[2,3-c]pyridin-7-one] was below 50 nM.
With `CC(C)[C@@H]1CN(C)CCN1Cc1cc2c(C3CC3)cn(-c3cccc([C@]4(c5nncn5C)C[C@@H](C)C4)c3)c(=O)c2[nH]1` [Compound T095, 4-cyclopropyl-2-(((R)-2-isopropyl-4-methylpiperazin-1-yl)methyl)-6-(3-((1s,3S)-3-methyl-1-(4-methyl-4H-1,2,4-triazol-3-yl)cyclobutyl)phenyl)-1,6-dihydro-7H-pyrrolo[2,3-c]pyridin-7-one], the Ki is below 50 nM.
In the case of `C[C@@H]1CN(Cc2cc3c(C(F)(F)F)cn(-c4cccc([C@]5(c6nncn6C)C[C@@H](C)C5)c4)c(=O)c3[nH]2)CCN1C(=O)OC(C)(C)C` [Compound T141, tert-butyl (2R)-2-methyl-4-[[6-[3-[3-methyl-1-(4-methyl-1,2,4-triazol-3-yl)cyclobutyl]phenyl]-7-oxo-4-(trifluoromethyl)-1H-pyrrolo[2,3-c]pyridin-2-yl]methyl]piperazine-1-carboxylate], the Ki was below 50 nM.
The value for `CCN(CC)Cc1cc2c(C(F)(F)F)cn(-c3cccc([C@]4(c5nncn5C)C[C@H](OC)C4)c3)c(=O)c2[nH]1` [Compound T118, 2-((diethylamino)methyl)-6-(3-((1r,3r)-3-methoxy-1-(4-methyl-4H-1,2,4-triazol-3-yl)cyclobutyl)phenyl)-4-(trifluoromethyl)-1,6-dihydro-7H-pyrrolo[2,3-c]pyridin-7-one] was below 50 nM; that for `C[C@@H]1CCN(Cc2cc3c(C(F)(F)F)cn(-c4cccc(C5(c6nncn6C)CCC5)c4)c(=O)c3[nH]2)CC1(F)F` [Compound T115, (R)-2-((3,3-difluoro-4-methylpiperidin-1-yl)methyl)-6-(3-(1-(4-methyl-4H-1,2,4-triazol-3-yl)cyclobutyl)phenyl)-4-(trifluoromethyl)-1,6-dihydro-7H-pyrrolo[2,3-c]pyridin-7-one] was 50 to 100 nM.
Consider `C[C@H]1CCCN(Cc2cc3c(C(F)(F)F)cn(-c4cccc(C5(Cc6nncn6C)COC5)c4)c(=O)c3[nH]2)C1` [Compound T061, 2-[[(3S)-3-methyl-1-piperidyl]methyl]-6-[3-[3-[(4-methyl-1,2,4-triazol-3-yl)methyl]oxetan-3-yl]phenyl]-4-(trifluoromethyl)-1H-pyrrolo[2,3-c]pyridin-7-one], for which the Ki is below 50 nM.
Next, `CC(C)c1cn(-c2cccc(C3(Cc4nncn4C)COC3)c2)c(=O)c2[nH]c(CN3CCC[C@H](C)C3)cc12` [Compound T022, 4-isopropyl-2-[[(3S)-3-methyl-1-piperidyl]methyl]-6-[3-[3-[(4-methyl-1,2,4-triazol-3-yl)methyl]oxetan-3-yl]phenyl]-1H-pyrrolo[2,3-c]pyridin-7-one]: below 50 nM.
`CC1CC(c2cc(C(=O)O)cc(-n3cc(C(F)(F)F)c4cc(CN5CCC[C@H](C)C5)[nH]c4c3=O)c2)(c2nncn2C)C1` (stereo partly drawn) [Compound T128, 3-[3-methyl-1-(4-methyl-1,2,4-triazol-3-yl)cyclobutyl]-5-[2-[[(3S)-3-methyl-1-piperidyl]methyl]-7-oxo-4-(trifluoromethyl)-1H-pyrrolo[2,3-c]pyridin-6-yl]benzoic acid] displayed a Ki below 50 nM.
The value for `Cn1cnnc1C1(c2cccc(-n3cc(C(F)(F)F)c4cc(CN5CCC[C@@]6(CCOC6)C5)[nH]c4c3=O)c2)CCC1` [Compound T124, (R)-2-((2-oxa-7-azaspiro[4.5]decan-7-yl)methyl)-6-(3-(1-(4-methyl-4H-1,2,4-triazol-3-yl)cyclobutyl)phenyl)-4-(trifluoromethyl)-1,6-dihydro-7H-pyrrolo[2,3-c]pyridin-7-one] was 100 to 500 nM.

As usually defined, the Ki is a dissociation constant, usually derived from enzyme kinetics or from competition with a known ligand. Low readings indicate tighter binding, high ones weaker binding.
